The values below come from US20230302104A1, “TREATMENT AND/OR PREVENTION OF A DISEASE OR A SYNDROME RELATED TO A VIRUS INFECTION” (priority 2020, published 2023).

For the experiment, the system named is SARS-CoV pseudovirus entry in ACE2 overexpressing A549 human lung alveolar basal epithelium cells. It counts as cell-based.

rhAAT: the SARS-CoV pseudovirus entry entry is recorded as “inhibits viral entry of several viruses”.
